The values that follow come from patent US5391540A, “Substituted pyridine compounds” (Rohm and Haas Company, priority 1993, dated 1995).

Test in all cases: Pre-emergent herbicidal activity (Table A)
Common to all, as to format: in vivo

In assay [1] the test system is Annual Bluegrass. As to conditions: pre-emergence, Anbg, 11.2 kg/ha, 10-14 days, read-out: herbicidal rating (% inhibition). Here is the method: (§1) Tables A and B summarize results of tests conducted to determine the pre-emergent herbicidal activity of the compounds of this invention. The herbicidal ratings used in Tables A and B were assigned according to a scale based on the percent inhibition of each plant species. The herbicide rating symbols in Tables A and B are defined as follows: […]
(§2) One set of pre-emergent tests was conducted as follows:
(§3) Topsoil was placed in a pan and compacted to a depth of 0.95 to 1.27 cm. from the top of the pan. A predetermined number of seeds of each of several monocotyledonous and dicotyledonous annual plant species and/or vegetative propagules of various perennial plant species were placed on top of the soil. The soil required to level fill a pan after seeding or adding vegetative propagules was weighed into another pan. A known amount of the test compound dissolved or suspended in an organic solvent or water and applied in acetone or water as a carrier was thoroughly mixed with this cover soil, and the herbicide/soil mixture was used as a cover layer for the previously prepared pan. In Table A below the amounts of active ingredient were all equivalent to an application rate of 11.2 kilograms/hectare (kg/ha). After treatment, the pans were moved to a greenhouse bench where they were watered as needed to give adequate moisture for germination and growth.
(§4) Approximately 10-14 days (usually 11 days) after planting and treating, the plants were observed and the results recorded.
(§5) The plant species usually regarded as weeds which were utilized in one set of pre-emergent activity tests, the data for which are shown in Table A, are identified by letter headings printed diagonally above the columns according to the following legend: […]

The subject of assay [2] is Indian Mustard. As to conditions: Brassica juncea, pre-emergence, Inmu, 11.2 kg/ha, 10-14 days, read-out: herbicidal rating (% inhibition). Here is the method: as §1, §2, §3, §4, §5
Assay [3] concerns Seedling Johnsongrass. As to conditions: Sorghum halepense, pre-emergence, Sejg, 11.2 kg/ha, 10-14 days, read-out: herbicidal rating (% inhibition). The procedure:
as §1, §2, §3, §4, §5

The subject of assay [4] is Wild Buckwheat. As to conditions: Fallopia convolvulus, pre-emergence, Wibw, 11.2 kg/ha, 10-14 days, read-out: herbicidal rating (% inhibition). The procedure:
as §1, §2, §3, §4, §5

Assay [5] relates to Barnyardgrass. As to conditions: Echinochloa crus-galli, pre-emergence, Bygr, 11.2 kg/ha, 10-14 days, read-out: herbicidal rating (% inhibition). In short, it runs like this:
(§6)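 Percent inhibition per species, scored on a rating scale, after pre-emergent soil incorporation: test compound in acetone or water carrier mixed into cover soil, layered over seeded topsoil or vegetative propagules.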

Assay [6] has as its system Cocklebur. As to conditions: Xanthium strumarium, pre-emergence, Cobu, 11.2 kg/ha, 10-14 days, read-out: herbicidal rating (% inhibition). In short, it runs like this:
as §6

Assay [7] deals with Downy Brome. As to conditions: Bromus tectorum, pre-emergence, Dobr, 11.2 kg/ha, 10-14 days, read-out: herbicidal rating (% inhibition). In short, it runs like this:
as §6

Assay [8] concerns Morningglory. As to conditions: Ipomoea, pre-emergence, Mogl, 11.2 kg/ha, 10-14 days, read-out: herbicidal rating (% inhibition). In short, it runs like this: as §6
The test system of assay [9] is Velvetleaf. To be noted: Abutilon theophrasti, pre-emergence, Vele, 11.2 kg/ha, 10-14 days, read-out: herbicidal rating (% inhibition). In short, it runs like this:
as §6

Assay [10] deals with Yellow Nutsedge. As to conditions: Cyperus, pre-emergence, Yens, 11.2 kg/ha, 10-14 days, read-out: herbicidal rating (% inhibition). In short, it runs like this:
as §6

A word on the inhibition: it is how much of the control response was suppressed. Take `COc1nc(C(F)(F)F)c(C(=O)Cl)c(CC(C)C)c1C(=O)SC` [Compound 133, 3-pyridinecarbothioic acid, 5-(chlorocarbonyl)-2-methoxy-4-(2-methylpropyl)-6-(trifluoromethyl)-, S-methyl ester]: the inhibition at 11200 g/ha was in the range of 0 to 24% in [1]; 25 to 49% in assay [2]; 0 to 24% in assay [3]; 0 to 24% in assay [4]; 0 to 24% in assay [5]; 0 to 24% in assay [6]. Further, the inhibition at 11200 g/ha in assay [7], in [8], in assay [9] and in assay [10] was 0 to 24% throughout.
On to `C=C1CC(c2c(C(F)(F)F)nc(OC)c(C(=O)OC)c2CC(C)C)OC1=O` (stereo not shown) [Compound 90, 3-pyridinecarboxylic acid, 5-(tetrahydro-4-methylene-5-oxo-2-furanyl)-2-methoxy-4-(2-methylpropyl)-6-(trifluoromethyl)-, methyl ester], for which the inhibition at 11200 g/ha in [1] was in the range of 75 to 100%; in assay [2], 0 to 24%; in assay [3], 25 to 49%; in assay [4], 0 to 24%; in assay [5], 50 to 74%; in assay [6], 0 to 24%. Besides, the inhibition at 11200 g/ha in [7] was 50 to 74%; in assay [8], 0 to 24%; in assay [9], 0 to 24%; in assay [10] it was 0 to 24%.
As to `COC(=O)c1c(OC)nc(C(F)(F)F)c(C2OCCCO2)c1CC(C)C` [Compound 110, 3-pyridinecarboxylic acid, 5-(1,3-dioxan-2-yl)-2-methoxy-4-(2-methylpropyl)-6-(trifluoromethyl)-, methyl ester], the inhibition at 11200 g/ha in [1], in assay [2], in assay [3], in [4], in [5] and in [6] was 75 to 100% each time. In addition, the inhibition at 11200 g/ha in assay [7] was in the range of 75 to 100%; in assay [8], 75 to 100%; in [9], 75 to 100%; in assay [10], 50 to 74%.
Take `COC(=O)c1c(OC)nc(C(F)(F)F)c(C#N)c1CC(C)C` [Compound 106, 3-pyridinecarboxylic acid, 5-cyano-2-methoxy-4-(2-methylpropyl)-6-(trifluoromethyl)-, methyl ester]: the inhibition at 11200 g/ha was in the range of 75 to 100% in [1]; 75 to 100% in [2]; 0 to 24% in assay [3]; 75 to 100% in assay [4]; 75 to 100% in assay [5]; 0 to 24% in assay [6]. The inhibition at 11200 g/ha is 75 to 100% in assay [7], 50 to 74% in assay [8], 0 to 24% in [9] and 0 to 24% in assay [10].
Regarding `COC(=O)c1c(OC)nc(C(F)(F)F)c(C(=O)n2cncn2)c1C1CCC1` [Compound 141], the inhibition at 11200 g/ha in assay [1] lay in the range of 75 to 100%; in assay [2], 75 to 100%; in assay [3], 75 to 100%; in [4] it was 75 to 100%; in assay [5], 75 to 100%; in assay [6] it was 0 to 24%. Also, the inhibition at 11200 g/ha in assay [7] was 75 to 100%; in assay [8] it was 75 to 100%; in assay [9] it was 75 to 100%; in [10] it was 50 to 74%.
In the case of `COC(=O)c1c(OC)nc(C(F)(F)F)c(C2OCCS2(=O)=O)c1CC(C)C` (stereo not shown) [Compound 127, 3-pyridinecarboxylic acid, 2-methoxy-4-(2-methylpropyl)-5-(3,3-dioxo-1,3-oxathiolan-2-yl)-6-(trifluoromethyl)-, methyl ester], the inhibition at 11200 g/ha lay within 75 to 100% in assay [1]; 50 to 74% in assay [2]; 75 to 100% in assay [3]; 50 to 74% in [4]; 75 to 100% in assay [5]; 0 to 24% in assay [6]. In addition, the inhibition at 11200 g/ha in assay [7] fell in the range of 75 to 100%; in assay [8], 25 to 49%; in assay [9], 25 to 49%; in assay [10], 0 to 24%.
As for `COC(=O)c1c(OC)nc(C(F)(F)F)c(C2OCC[S+]2[O-])c1CC(C)C` (stereo not shown) [Compound 126, 3-pyridinecarboxylic acid, 2-methoxy-4-(2-methylpropyl)-5-(1,3-oxathiolan-2-yl)-6-(trifluoromethyl)-, methyl ester, S-oxide], the inhibition at 11200 g/ha lay in the range of 75 to 100% in [1]; 75 to 100% in assay [2]; 75 to 100% in assay [3]; 75 to 100% in [4]; 75 to 100% in assay [5]; 25 to 49% in assay [6]. Moreover, the inhibition at 11200 g/ha lay within 75 to 100% in assay [7], 75 to 100% in assay [8], 75 to 100% in assay [9] and 0 to 24% in assay [10].
For `COc1nc(C(F)(F)F)c(C=O)c(CC(C)C)c1C(=O)SC` [Compound 135, 3-pyridinecarbothioic acid, 5-formy1-2-methoxy-4-(2-methylpropyl)-6-(trifluoromethyl)-, S-methyl ester], the inhibition at 11200 g/ha lay in the range of 75 to 100% in [1]; 75 to 100% in assay [2]; 50 to 74% in assay [3]; 25 to 49% in [4]; 75 to 100% in assay [5]; 0 to 24% in assay [6]. For the same compound, the inhibition at 11200 g/ha in [7] lay within 75 to 100%; in assay [8], 0 to 24%; in [9] it was 50 to 74%; in assay [10] it was 0 to 24%.
With `COC(=O)c1c(OC)nc(C(F)(F)F)c(C2OCC(=O)O2)c1CC(C)C` (stereo not shown) [Compound 123, 3-pyridinecarboxylic acid, 2-methoxy-4-(2-methylpropyl)-5-(4-oxo-1,3-dioxolan-2-yl)-6-(trifluoromethyl)-, methyl ester], the inhibition at 11200 g/ha in assay [1] is 75 to 100%; in assay [2], 75 to 100%; in [3] it was 75 to 100%; in assay [4], 75 to 100%; in [5], 75 to 100%; in [6], 0 to 24%. The inhibition at 11200 g/ha is 75 to 100% in assay [7], 25 to 49% in [8], 25 to 49% in [9] and 0 to 24% in assay [10].
As to `COc1nc(C(F)(F)F)c(C2OCCCO2)c(CC(C)C)c1C(=O)SC` [Compound 136, 3-pyridinecarbothioic acid, 5-(1,3-dioxan-2-yl)-2-methoxy-4-(2-methylpropyl)-6-(trifluoromethyl)-, S-methyl ester], the inhibition at 11200 g/ha in assay [1] lay within 75 to 100%; in assay [2] it was 75 to 100%; in assay [3], 75 to 100%; in [4] it was 75 to 100%; in assay [5] it was 75 to 100%; in [6] it was 50 to 74%. The inhibition at 11200 g/ha in [7] was 75 to 100%; in assay [8], 50 to 74%; in [9], 50 to 74%; in assay [10], 25 to 49%.
